Experimental data taken from the NIST ThermoML archive (doi:10.1016/j.jct.2014.07.019).
Numbers after ± are expanded uncertainties.

Key:
[1] = xn = mol fraction of the nth substance listed; conditions: 100 kPa, Liquid, x2 = 0; for speed of sound: Frequency=3 MHz, Sing-around technique in a fixed-path interferometer; for mass density: Vibrating tube method
[2] = 100 kPa, Liquid; for speed of sound: Frequency=3 MHz, Sing-around technique in a fixed-path interferometer; for mass density: Vibrating tube method

SMILES | speed of sound ([1]; 293.15 K) [m/s] | mass density ([1]; 293.15 K) [kg/m3] | speed of sound ([1]; 298.15 K) [m/s] | mass density ([1]; 298.15 K) [kg/m3] | speed of sound ([1]; 303.15 K) [m/s] | mass density ([1]; 303.15 K) [kg/m3] | speed of sound ([1]; 308.15 K) [m/s] | mass density ([1]; 308.15 K) [kg/m3] | speed of sound ([1]; 313.15 K) [m/s] | mass density ([1]; 313.15 K) [kg/m3] | speed of sound ([2]; 293.15 K) [m/s] | mass density ([2]; 293.15 K) [kg/m3] | speed of sound ([2]; 298.15 K) [m/s] | mass density ([2]; 298.15 K) [kg/m3] | speed of sound ([2]; 303.15 K) [m/s] | mass density ([2]; 303.15 K) [kg/m3] | speed of sound ([2]; 308.15 K) [m/s] | mass density ([2]; 308.15 K) [kg/m3] | speed of sound ([2]; 313.15 K) [m/s] | mass density ([2]; 313.15 K) [kg/m3]
CCCO [propan-1-ol] + CCCCOCC(C)O | 1224.2 ± 1.3 | 804.144 ± 0.16 | 1207 ± 1.3 | 800.13 ± 0.16 | 1189.8 ± 1.2 | 796.08 ± 0.16 | 1172.8 ± 1.2 | 792.001 ± 0.17 | 1156.2 ± 1.2 | 787.884 ± 0.17 |  |  |  |  |  |  |  |  |  | 
CCCO [propan-1-ol] |  |  |  |  |  |  |  |  |  |  | 1224.2 ± 1.3 | 804.144 ± 0.16 | 1207 ± 1.3 | 800.13 ± 0.16 | 1189.8 ± 1.2 | 796.08 ± 0.16 | 1172.8 ± 1.2 | 792.001 ± 0.17 | 1156.2 ± 1.2 | 787.884 ± 0.17
CCCCO [butan-1-ol] + CCCCOCC(C)O | 1257.5 ± 1.2 | 809.807 ± 0.15 | 1240.6 ± 1.2 | 805.986 ± 0.15 | 1223.7 ± 1.2 | 802.139 ± 0.15 | 1207 ± 1.2 | 798.261 ± 0.15 | 1190.5 ± 1.2 | 794.385 ± 0.15 |  |  |  |  |  |  |  |  |  | 
CCC(C)O (stereo not given) [butan-2-ol] + CCCCOCC(C)O | 1230.2 ± 1.3 | 806.679 ± 0.16 | 1213.3 ± 1.3 | 802.563 ± 0.16 | 1197.2 ± 1.2 | 798.352 ± 0.16 | 1177 ± 1.2 | 794.058 ± 0.17 | 1158.9 ± 1.2 | 789.668 ± 0.17 |  |  |  |  |  |  |  |  |  | 
CC(C)O [propan-2-ol] |  |  |  |  |  |  |  |  |  |  | 1168.5 ± 1.2 | 785.739 ± 0.15 | 1148 ± 1.2 | 781.588 ± 0.15 | 1132.2 ± 1.2 | 777.468 ± 0.15 | 1114.3 ± 1.1 | 773.151 ± 0.15 | 1096.2 ± 1.1 | 768.446 ± 0.15
CCC(C)O (stereo not given) [butan-2-ol] |  |  |  |  |  |  |  |  |  |  | 1230.2 ± 1.3 | 806.679 ± 0.16 | 1213.3 ± 1.3 | 802.563 ± 0.16 | 1197.2 ± 1.2 | 798.352 ± 0.16 | 1177 ± 1.2 | 794.058 ± 0.17 | 1158.9 ± 1.2 | 789.668 ± 0.17
CC(C)O [propan-2-ol] + CCCCOCC(C)O | 1168.5 ± 1.2 | 785.739 ± 0.15 | 1148 ± 1.2 | 781.588 ± 0.15 | 1132.2 ± 1.2 | 777.468 ± 0.15 | 1114.3 ± 1.1 | 773.151 ± 0.15 | 1096.2 ± 1.1 | 768.446 ± 0.15 |  |  |  |  |  |  |  |  |  | 
CCCCOCC(C)O (stereo not given) [1-butoxy-2-propanol] |  |  |  |  |  |  |  |  |  |  | 1279 ± 1.3 | 879.031 ± 0.15 | 1260.9 ± 1.3 | 874.632 ± 0.15 | 1242.9 ± 1.3 | 870.204 ± 0.15 | 1224.9 ± 1.3 | 865.737 ± 0.15 | 1207 ± 1.3 | 861.241 ± 0.15
CCCCO [butan-1-ol] |  |  |  |  |  |  |  |  |  |  | 1257.5 ± 1.2 | 809.807 ± 0.15 | 1240.6 ± 1.2 | 805.986 ± 0.15 | 1223.7 ± 1.2 | 802.139 ± 0.15 | 1207 ± 1.2 | 798.261 ± 0.15 | 1190.5 ± 1.2 | 794.385 ± 0.15
